# Measured values from patent US20140274713A1, “IONIC LIQUIDS AND USES THEREOF” (OMS Investments, Inc., priority 2013, published 2014).
# Assay: Dissolution in Dowanol DPM under high shear
# Format: physicochemical
# Details: Dowanol DPM (dipropylene glycol methyl ether)
compound,measurement,value
"COC(=O)c1ccccc1S(=O)(=O)NC(=O)Nc1nc(C)nc(OC)n1 [MSM, methsulfuron methyl]",Dissolution in Dowanol DPM,did not dissolve
